Reference: ChEMBL document CHEMBL5137032, “Design, synthesis of DNA-interactive 4-thiazolidinone-based indolo-/pyrroloazepinone conjugates as potential cytotoxic and topoisomerase I inhibitors” (Eur J Med Chem, 2022)
Activity calls are given as the source filed them. No cut-off for these calls is given here.

How the values were obtained:
[1] = system: A549; test: Cytotoxicity against human A549 cells assessed as cell growth inhibition incubated for 48 hrs by MTT assay; format: functional, cell-based; settings: A549, 48 h
[2] = system: HCT-116; test: Cytotoxicity against human HCT-116 cells assessed as cell growth inhibition incubated for 48 hrs by MTT assay; format: functional, cell-based; settings: HCT-116, 48 h
[3] = system: SK-MEL-28; test: Cytotoxicity against human SK-MEL-28 cells assessed as cell growth inhibition incubated for 48 hrs by MTT assay; format: functional, cell-based; settings: SK-MEL-28, 48 h
[4] = system: HT-29; test: Cytotoxicity against human HT-29 cells assessed as cell growth inhibition incubated for 48 hrs by MTT assay; format: functional, cell-based; settings: HT-29, 48 h
[5] = system: MCF7; test: Cytotoxicity against human MCF7 cells assessed as cell growth inhibition incubated for 48 hrs by MTT assay; format: functional, cell-based; settings: MCF7, 48 h
[6] = Cytotoxicity against rat NRK cells assessed as cell growth inhibition incubated for 48 hrs by MTT assay; format: toxicity, cell-based
[7] = system: A549; test: Induction of apoptosis in human A549 cells assessed as changes in cell morphology at 0.625 to 2.5 uM incubated for 48 hrs by phase contrast microscopy; format: functional, cell-based; settings: dose 0.625-2.5 µM
[8] = system: A549; test: Induction of apoptosis in human A549 cells assessed as cell shrinkage at 0.625 to 2.5 uM incubated for 48 hrs by phase contrast microscopy; format: functional, cell-based; settings: dose 0.625-2.5 µM, DDE = dose-dependent effect
[9] = system: A549; test: Induction of apoptosis in human A549 cells assessed as nuclear fragmentation at 0.625 to 2.5 uM incubated for 48 hrs by DAPI staining based fluorescence microscopic analysis; format: functional, cell-based; settings: dose 0.625-2.5 µM
[10] = system: A549; test: Induction of apoptosis in human A549 cells assessed as cell membrane disruption at 0.625 to 2.5 uM incubated for 48 hrs by phase contrast microscopy; format: functional, cell-based; settings: dose 0.625-2.5 µM, DDE = dose-dependent effect
[11] = system: A549; test: Induction of apoptosis in human A549 cells assessed as reduction on viable cells at 0.625 to 2.5 uM incubated for 48 hrs by phase contrast microscopy; format: functional, cell-based; settings: dose 0.625-2.5 µM, DDE = dose-dependent effect
[12] = system: A549; test: Induction of apoptosis in human A549 cells assessed as changes in nuclear morphology at 0.625 to 2.5 uM incubated for 48 hrs by DAPI staining based fluorescence microscopic analysis; format: functional, cell-based; settings: dose 0.625-2.5 µM
[13] = system: A549; test: Induction of apoptosis in human A549 cells assessed as chromatin condensation at 0.625 to 2.5 uM incubated for 48 hrs by DAPI staining based fluorescence microscopic analysis; format: functional, cell-based; settings: dose 0.625-2.5 µM
[14] = system: A549; test: Induction of apoptosis in human A549 cells assessed as cell shrinkage at 0.625 to 2.5 uM incubated for 48 hrs by AO/EB staining based fluorescence microscopy; format: functional; settings: dose 0.625-2.5 µM, DDE = dose-dependent effect
[15] = system: A549; test: Induction of apoptosis in human A549 cells assessed as apoptotic body fragmentation at 0.625 to 2.5 uM incubated for 48 hrs by AO/EB staining based fluorescence microscopy; format: functional, cell-based; settings: dose 0.625-2.5 µM, DDE = dose-dependent effect
[16] = system: A549; test: Induction of apoptosis in human A549 cells assessed as membrane blebbing at 0.625 to 2.5 uM incubated for 48 hrs by AO/EB staining based fluorescence microscopy; format: functional, cell-based; settings: dose 0.625-2.5 µM, DDE = dose-dependent effect
[17] = system: A549; test: Induction of apoptosis in human A549 cells assessed as chromatin condensation at 0.625 to 2.5 uM incubated for 48 hrs by AO/EB staining based fluorescence microscopy; format: functional, cell-based; settings: dose 0.625-2.5 µM, DDE = dose-dependent effect
[18] = system: A549; test: Induction of intracellular ROS generation in human A549 cells at 0.625 to 2.5 uM incubated for 48 hrs by […] fluorescence microscopic analysis; format: functional, cell-based; settings: dose 0.625-2.5 µM, DDE = dose-dependent effect
[19] = system: A549; test: Anti-migration activity in human A549 cells assessed as distance travelled at 0.625 uM by wound healing assay based phase contrast microscopy; format: functional
[20] = system: A549; test: Anti-migration activity in human A549 cells assessed as distance travelled at 1.25 uM by wound healing assay based phase contrast microscopy; format: functional
[21] = system: A549; test: Anti-migration activity in human A549 cells assessed as distance travelled at 2.5 uM by wound healing assay based phase contrast microscopy; format: functional
[22] = system: A549; test: Anti-migration activity in human A549 cells assessed as distance travelled at 0.625 uM incubated for 48 hrs by wound healing assay based phase contrast microscopy; format: functional
[23] = system: A549; test: Anti-migration activity in human A549 cells assessed as distance travelled at 1.25 uM incubated for 48 hrs by wound healing assay based phase contrast microscopy; format: functional
[24] = system: A549; test: Anti-migration activity in human A549 cells assessed as distance travelled at 2.5 uM incubated for 48 hrs by wound healing assay based phase contrast microscopy; format: functional
[25] = system: A549; test: Inhibition of cell migration in human A549 cells at 0.625 to 2.5 uM incubated for 48 hrs by wound healing assay based phase contrast microscopy; format: functional; settings: dose 0.625-2.5 µM, DDE = dose-dependent effect
[26] = system: A549; test: Inhibition of colony formation in human A549 cells assessed as decrease in colonies at 0.625 to 2.5 uM incubated for 7 days by crystal violet staining based assay; format: functional, cell-based; settings: dose 0.625-2.5 µM, time 7.0 day, DDE = dose-dependent effect
[27] = system: A549; test: Induction of apoptosis in human A549 cells assessed as necrotic cells at 0.625 to 2.5 uM incubated for 48 hrs by Annexin V-FITC/propidium iodide staining based flow cytometric analysis; format: functional; settings: dose 0.625-2.5 µM
[28] = system: A549; test: Induction of apoptosis in human A549 cells assessed as necrotic cells at 0.625 uM incubated for 48 hrs by Annexin V-FITC/propidium iodide staining based flow cytometric analysis; format: functional
[29] = system: A549; test: Induction of apoptosis in human A549 cells assessed as necrotic cells at 2.5 uM incubated for 48 hrs by Annexin V-FITC/propidium iodide staining based flow cytometric analysis; format: functional
[30] = system: A549; test: Induction of apoptosis in human A549 cells assessed as late apoptotic cells at 0.625 to 1.25 uM incubated for 48 hrs by Annexin V-FITC/propidium iodide staining based flow cytometric analysis; format: functional, cell-based; settings: dose 0.625-1.25 µM
[31] = system: A549; test: Induction of apoptosis in human A549 cells assessed as late apoptotic cells at 2.5 uM incubated for 48 hrs by Annexin V-FITC/propidium iodide staining based flow cytometric analysis; format: functional
[32] = system: Calf thymus DNA; test: Binding affinity to calf thymus DNA assessed as hyperchromicity at 10 to 20 uM by UV-Vis spectroscopic analysis; format: nucleic-acid assay; settings: Bos taurus; dose 10-20 µM
[33] = system: Calf thymus DNA; test: Binding affinity to calf thymus DNA assessed as hyperchromicity at 10 uM by circular dichroism spectroscopy; format: nucleic-acid assay; settings: Bos taurus
[34] = system: Calf thymus DNA; test: Binding affinity to calf thymus DNA assessed as increase in viscosity at 15 uM by ethidium bromide-Hoechst 33342 staining based analysis; format: nucleic-acid assay; settings: Bos taurus
[35] = biological target: T1, DNA topoisomerase 1 (Homo sapiens) (UniProt P11387); test: Inhibition of DNA topoisomerase 1 (unknown origin) assessed as reduction in pBR322 DNA relaxation at 10 uM incubated for 30 mins measured by agarose gel electrophoresis method relative to control
T1 sequence (whole entry): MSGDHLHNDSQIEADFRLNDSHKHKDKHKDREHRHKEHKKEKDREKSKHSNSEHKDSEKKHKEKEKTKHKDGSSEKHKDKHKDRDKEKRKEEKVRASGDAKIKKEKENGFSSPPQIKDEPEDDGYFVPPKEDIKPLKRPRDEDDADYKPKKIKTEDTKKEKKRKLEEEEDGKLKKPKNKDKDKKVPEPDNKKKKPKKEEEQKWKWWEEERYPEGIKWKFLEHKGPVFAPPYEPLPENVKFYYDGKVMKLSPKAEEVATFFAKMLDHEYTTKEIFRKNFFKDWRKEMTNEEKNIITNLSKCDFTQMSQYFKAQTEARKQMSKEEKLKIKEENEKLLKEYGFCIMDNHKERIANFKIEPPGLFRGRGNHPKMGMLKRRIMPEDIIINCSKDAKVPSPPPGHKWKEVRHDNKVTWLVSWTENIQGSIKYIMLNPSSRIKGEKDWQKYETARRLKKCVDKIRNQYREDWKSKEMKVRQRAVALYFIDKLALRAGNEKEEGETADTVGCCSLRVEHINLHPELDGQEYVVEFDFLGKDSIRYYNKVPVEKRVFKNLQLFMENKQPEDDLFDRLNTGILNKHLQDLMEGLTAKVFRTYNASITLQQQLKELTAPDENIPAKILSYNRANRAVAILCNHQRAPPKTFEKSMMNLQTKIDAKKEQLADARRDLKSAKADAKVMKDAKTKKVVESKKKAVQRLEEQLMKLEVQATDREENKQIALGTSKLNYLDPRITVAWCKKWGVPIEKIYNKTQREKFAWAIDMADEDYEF

[36] = biological target: T2, DNA topoisomerase 1 (Homo sapiens, UniProt P11387); test: Inhibition of human DNA topoisomerase 1 assessed as reduction in pBR322 DNA relaxation incubated for 1 hrs measured by agarose gel electrophoresis method
T2 sequence (P11387 whole entry): T1 sequence (whole entry)

[37] = biological target: DNA topoisomerase 2-alpha (Homo sapiens) (UniProt P11388); test: Inhibition of DNA topoisomerase 2 (unknown origin) assessed as reduction in decatenation using kDNA as substrate incubated for 30 mins measured by agarose gel electrophoresis method
Chain of DNA topoisomerase 2-alpha (Homo sapiens) (P11388 whole entry): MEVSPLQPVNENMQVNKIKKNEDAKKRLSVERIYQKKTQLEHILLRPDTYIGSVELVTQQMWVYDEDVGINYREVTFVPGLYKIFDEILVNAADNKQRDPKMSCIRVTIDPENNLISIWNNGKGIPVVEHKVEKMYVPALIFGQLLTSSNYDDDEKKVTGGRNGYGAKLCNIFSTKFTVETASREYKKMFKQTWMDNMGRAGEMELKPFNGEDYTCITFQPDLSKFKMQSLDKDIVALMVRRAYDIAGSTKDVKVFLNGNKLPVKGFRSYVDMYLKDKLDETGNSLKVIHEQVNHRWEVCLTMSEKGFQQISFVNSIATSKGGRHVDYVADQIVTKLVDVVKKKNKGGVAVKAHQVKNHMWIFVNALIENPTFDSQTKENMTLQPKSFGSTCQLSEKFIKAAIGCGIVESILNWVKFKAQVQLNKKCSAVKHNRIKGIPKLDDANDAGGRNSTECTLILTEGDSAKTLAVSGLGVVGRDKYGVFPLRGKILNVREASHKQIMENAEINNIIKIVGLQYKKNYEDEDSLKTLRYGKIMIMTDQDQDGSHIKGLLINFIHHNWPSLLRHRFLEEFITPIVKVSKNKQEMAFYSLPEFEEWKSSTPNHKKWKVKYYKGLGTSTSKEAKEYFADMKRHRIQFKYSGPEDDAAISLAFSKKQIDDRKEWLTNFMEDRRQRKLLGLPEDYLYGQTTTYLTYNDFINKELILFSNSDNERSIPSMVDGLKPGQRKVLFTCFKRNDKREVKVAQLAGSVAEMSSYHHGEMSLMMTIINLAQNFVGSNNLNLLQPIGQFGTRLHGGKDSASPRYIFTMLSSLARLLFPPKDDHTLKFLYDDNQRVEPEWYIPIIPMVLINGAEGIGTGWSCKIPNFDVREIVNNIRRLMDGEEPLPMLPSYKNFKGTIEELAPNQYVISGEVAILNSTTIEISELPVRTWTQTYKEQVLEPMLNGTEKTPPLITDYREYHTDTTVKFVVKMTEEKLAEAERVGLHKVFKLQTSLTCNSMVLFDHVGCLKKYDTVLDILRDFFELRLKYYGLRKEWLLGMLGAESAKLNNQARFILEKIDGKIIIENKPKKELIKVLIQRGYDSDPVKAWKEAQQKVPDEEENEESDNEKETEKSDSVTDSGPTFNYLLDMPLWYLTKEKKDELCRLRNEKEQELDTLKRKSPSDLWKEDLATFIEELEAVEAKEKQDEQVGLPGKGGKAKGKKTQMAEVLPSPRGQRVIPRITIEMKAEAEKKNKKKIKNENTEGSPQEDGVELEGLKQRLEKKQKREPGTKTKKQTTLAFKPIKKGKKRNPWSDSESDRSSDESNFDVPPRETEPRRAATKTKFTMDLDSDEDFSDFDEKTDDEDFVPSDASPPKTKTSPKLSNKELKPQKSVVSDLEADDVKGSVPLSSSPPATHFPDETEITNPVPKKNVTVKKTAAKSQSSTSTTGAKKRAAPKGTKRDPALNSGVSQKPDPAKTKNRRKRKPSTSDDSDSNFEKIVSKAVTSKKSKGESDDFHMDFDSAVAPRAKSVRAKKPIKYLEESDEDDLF

Cc1ccc(C/N=C2\NC(=O)/C(=C3\CCNC(=O)c4[nH]c5ccccc5c43)S2)cc1
IC50 [1]: 1.24 µM | IC50 [2]: 6.55 µM | IC50 [3]: 3.02 µM | IC50 [4]: 10.9 µM | IC50 [5]: 8.03 µM | IC50 at 48 h [6]: 53.2 µM | Activity [7]: Active | Activity [8]: Dde | Activity [9]: Active | Activity [10]: Dde | Activity [11]: Dde | Activity [12]: Active | Activity [13]: Active | Activity [14]: Dde | Activity [15]: Dde | Activity [16]: Dde | Activity [17]: Dde | Activity [18]: Dde | Activity [19]: 298.42 um | Activity [20]: 391.93 um | Activity [21]: 363.56 um | Activity [22]: 259.59 um | Activity [23]: 293.25 um | Activity [24]: 445.52 um | inhibition [25]: Dde | inhibition [26]: Dde | Activity [27]: 2.97% | Activity [28]: 4.8% | Activity [29]: 5.96% | Activity [30]: Active | Activity [31]: 3.09% | Activity [32]: Active | Activity [33]: Active | Activity [34]: Active | inhibition [35]: 28% | IC50 [36]: 48 µM | inhibition [37]: Active
